Measurements: the supplement of paper PMC11451515

System: SEM cells
Experiment: cell viability relative to DMSO control; higher = less cytotoxic
Conditions: 48 h
In short: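 NOMO1, SEM and P12-Ichikawa leukemia cells spent at least four passages adapting to each medium before use. They were seeded at 500 cells/well (NOMO1, SEM) or 1000 cells/well (P12-Ichikawa) in 5 μl in 1536-well plates and pin-dosed with library compounds in DMSO at 11 threefold steps from 47 μM down to 0.79 nM. After 48 h at 37°C, CellTiter-Glo One luminescence was read. Viability is reported as a percentage of the DMSO wells on each plate, with cell-free wells as background.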

[1] = HPLM + 10% dialyzed FBS, 0.000781 µM
[2] = HPLM + 10% dialyzed FBS, 0.00234 µM
[3] = HPLM + 10% dialyzed FBS, 0.00702 µM
[4] = HPLM + 10% dialyzed FBS, 0.0211 µM
[5] = HPLM + 10% dialyzed FBS, 0.0632 µM
[6] = HPLM + 10% dialyzed FBS, 0.19 µM
[7] = HPLM + 10% dialyzed FBS, 0.569 µM
[8] = HPLM + 10% dialyzed FBS, 1.71 µM
[9] = HPLM + 10% dialyzed FBS, 5.12 µM
[10] = HPLM + 10% dialyzed FBS, 15.4 µM
[11] = HPLM + 10% dialyzed FBS, 46.1 µM
[12] = RPMI 5 mM glucose + 10% FBS, 0.000781 µM
[13] = RPMI 5 mM glucose + 10% FBS, 0.00234 µM
[14] = RPMI 5 mM glucose + 10% FBS, 0.00702 µM
[15] = RPMI 5 mM glucose + 10% FBS, 0.0211 µM
[16] = RPMI 5 mM glucose + 10% FBS, 0.0632 µM
[17] = RPMI 5 mM glucose + 10% FBS, 0.19 µM
[18] = RPMI 5 mM glucose + 10% FBS, 0.569 µM
[19] = RPMI 5 mM glucose + 10% FBS, 1.71 µM
[20] = RPMI 5 mM glucose + 10% FBS, 5.12 µM
[21] = RPMI 5 mM glucose + 10% FBS, 15.4 µM
[22] = RPMI 5 mM glucose + 10% FBS, 46.1 µM
[23] = RPMI 5 mM glucose + 10% dialyzed FBS, 0.000781 µM
[24] = RPMI 5 mM glucose + 10% dialyzed FBS, 0.00234 µM
[25] = RPMI 5 mM glucose + 10% dialyzed FBS, 0.00702 µM
[26] = RPMI 5 mM glucose + 10% dialyzed FBS, 0.0211 µM
[27] = RPMI 5 mM glucose + 10% dialyzed FBS, 0.0632 µM
[28] = RPMI 5 mM glucose + 10% dialyzed FBS, 0.19 µM
[29] = RPMI 5 mM glucose + 10% dialyzed FBS, 0.569 µM
[30] = RPMI 5 mM glucose + 10% dialyzed FBS, 1.71 µM
[31] = RPMI 5 mM glucose + 10% dialyzed FBS, 5.12 µM
[32] = RPMI 5 mM glucose + 10% dialyzed FBS, 15.4 µM
[33] = RPMI 5 mM glucose + 10% dialyzed FBS, 46.1 µM

| Structure (SMILES) | cell viability [1] | cell viability [2] | cell viability [3] | cell viability [4] | cell viability [5] | cell viability [6] | cell viability [7] | cell viability [8] | cell viability [9] | cell viability [10] | cell viability [11] | cell viability [12] | cell viability [13] | cell viability [14] | cell viability [15] | cell viability [16] | cell viability [17] | cell viability [18] | cell viability [19] | cell viability [20] | cell viability [21] | cell viability [22] | cell viability [23] | cell viability [24] | cell viability [25] | cell viability [26] | cell viability [27] | cell viability [28] | cell viability [29] | cell viability [30] | cell viability [31] | cell viability [32] | cell viability [33] |
| --- | --- | --- | --- | --- | --- | --- | --- | --- | --- | --- | --- | --- | --- | --- | --- | --- | --- | --- | --- | --- | --- | --- | --- | --- | --- | --- | --- | --- | --- | --- | --- | --- | --- |
| Cc1ccc(/C=N/NC(=O)c2ccccc2Oc2ccccc2)o1 | 102% | 101% | 87% | 85.8% | 109% | 96.9% | 89.6% | 94.9% | 93.5% | 91.7% | 90.9% | 107% | 98.2% | 93% | 106% | 102% | 104% | 99.4% | 104% | 93.6% | 98.6% | 90.5% | 147% | 102% | 91.7% | 102% | 91.8% | 101% | 97.5% | 97.4% | 66.5% | 92.5% | 73.4% |
| CCCCc1nc2cc(/C=C/C(=O)NO)ccc2n1CCN(CC)CC | 91.9% | 91.8% | 105% | 98.1% | 108% | 108% | 92.6% | 61.1% | 6.03% | 4.68% | 5.88% | 85.4% | 99.1% | 94.8% | 97.8% | 109% | 107% | 94% | 73% | 5.16% | 4.06% | 5.64% | 82.9% | 79.1% | 95.6% | 94% | 77.5% | 99.6% | 76.6% | 57.7% | 6.04% | 4.68% | 6.77% |
| CC(C)CC(N(C)C)C1(c2ccc(Cl)cc2)CCC1 (stereo not drawn) | 114% | 119% | 117% | 133% | 124% | 117% | 126% | 110% | 90.4% | 54.3% | 59.1% | 111% | 127% | 118% | 116% | 121% | 128% | 121% | 105% | 75% | 40.2% | 46.7% | – | – | – | – | – | – | – | – | – | – | – |
| Nc1ccn([C@H]2CS[C@@H](CO)O2)c(=O)n1 | 81.2% | 108% | 109% | 122% | 137% | 126% | 123% | 129% | 123% | 101% | 147% | 101% | 116% | 108% | 135% | 157% | 138% | 141% | 130% | 144% | 153% | 144% | 104% | 136% | 117% | 134% | 144% | 138% | 139% | 135% | 138% | 110% | 135% |
| NC\1=N\C(=O)N(\C=C1F)[C@H]2C[C@H](O)[C@@H](CO)O2 | 110% | 123% | 116% | 89.9% | 63.4% | 30.8% | 47.2% | 43.6% | 45.5% | 34.7% | 39.7% | – | – | – | – | – | – | – | – | – | – | – | 125% | 128% | 93% | 53.8% | 38.7% | 21.8% | 35.4% | 40.1% | 28% | 30.1% | 28.5% |
| CCCCCCCCCCCC/1=C(O)/C(=O)/C=C(O)\C1=O | 98.9% | 111% | 126% | 132% | 128% | 138% | 118% | 144% | 130% | 127% | 130% | – | – | – | – | – | – | – | – | – | – | – | 107% | 120% | 126% | 132% | 131% | 138% | 134% | 140% | 137% | 146% | 129% |
| COc1ccc2[nH]cc(CCNC(C)=O)c2c1 | 91% | 110% | 113% | 116% | 127% | 114% | 114% | 101% | 103% | 117% | 106% | 112% | 123% | 124% | 124% | 117% | 114% | 124% | 102% | 110% | 123% | 119% | 121% | 131% | 114% | 144% | 125% | 113% | 120% | 104% | 100% | 124% | 113% |
